# Patent US8211903B2, “Substituted pyrimido isoquinoline derivatives” (Mitsubishi Tanabe Pharma Corporation, priority 2008, dated 2012)
# Where a name gives a salt, the structure may show the parent alone.
# Experiments:
# [1] = biological target: GSK3β (Homo sapiens, UniProt P49841); assay: Inhibitory activity against GSK3β (33P-ATP phosphorylation of prephosphorylated GS1 peptide); format: biochemical; conditions: protocol 3: 7.5 μM GS1 peptide, 10 μM ATP, 50 mM Hepes pH 7.2, one hour at room temperature
# Sequence of GSK3β (P49841 whole entry): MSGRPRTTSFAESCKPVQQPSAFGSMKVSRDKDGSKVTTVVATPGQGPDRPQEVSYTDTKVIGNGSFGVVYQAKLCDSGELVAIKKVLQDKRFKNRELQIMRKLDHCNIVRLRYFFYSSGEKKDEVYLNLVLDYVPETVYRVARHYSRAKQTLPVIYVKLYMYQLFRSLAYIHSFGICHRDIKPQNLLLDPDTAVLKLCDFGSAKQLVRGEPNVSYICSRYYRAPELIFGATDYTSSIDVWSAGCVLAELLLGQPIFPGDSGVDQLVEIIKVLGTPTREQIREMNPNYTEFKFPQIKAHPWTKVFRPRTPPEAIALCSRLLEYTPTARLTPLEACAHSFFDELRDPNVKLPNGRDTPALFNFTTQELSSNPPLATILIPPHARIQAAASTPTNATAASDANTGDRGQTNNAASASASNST
# Procedure: Four different protocols can be used.
# In a first protocol: 7.5 μM of prephosphorylated GS1 peptide and 10 μM ATP (containing 300,000 cpm of ^33P-ATP) were incubated in 25 mM Tris-HCl, pH 7.5, 0.6 mM DTT, 6 mM MgCl2, 0.6 mM EGTA, 0.05 mg/ml BSA buffer for 1 hour at room temperature in the presence of GSK3beta (total reaction volume: 100 microliters).
# In a second protocol: 4.1 μM of prephosphorylated GS1 peptide and 42 μM ATP (containing 260,000 cpm ^33P-ATP) were incubated in 80 mM Mes-NaOH, pH 6.5, 1 mM Mg acetate, 0.5 mM EGTA, 5 mM 2-mercaptoethanol, 0.02% Tween 20, 10% glycerol buffer for 2 hours at room temperature in the presence of GSK3beta.
# In a third protocol: 7.5 μM of prephosphorylated GS1 peptide and 10 μM ATP (containing 300,000 cpm of ^33P-ATP) were incubated in 50 mM Hepes, pH 7.2, 1 mM DTT, 1 mM MgCl2, 1 mM EGTA, 0.01% Tween 20 buffer for one hour at room temperature in the presence of GSK3beta (total reaction volume: 100 microliters). […]
# The reaction was stopped with 100 microliters of a solution made of 25 g polyphosphoric acid (85% P2O5), 126 ml 85% H3PO4, H2O to 500 ml and then diluted to 1:100 before use. […] Incorporated ^33P radioactivity was determined by liquid scintillation spectrometry. […]
Compound,melting point [°C],IC50 [1] [nM]
"O=c1cc(-c2ccncc2)nc2c3cccc([N+](=O)[O-])c3ccn12 (as salt: hydrochloride) [compound 4, 8-Nitro-2-pyridin-4-yl-pyrimido[2,1-a]isoquinolin-4-one]",270 to 272,
"O=c1cc(-c2ccncc2)nc2c3cc(O)ccc3ccn12 (as salt: oxalate) [compound 6, 10-Hydroxy-2-pyridin-4-yl-pyrimido[2,1-a]isoquinolin-4-one]",368 to 370,
"O=c1cc(-c2ccncc2)nc2c3ccccc3ccn12 [compound 1, 2-Pyridin-4-yl-pyrimido[2,1-a]isoquinolin-4-one]",,330
"Nc1cccc2c1ccn1c(=O)cc(-c3ccncc3)nc21 [compound 5, 8-Amino-2-pyridin-4-yl-pyrimido[2,1-a]isoquinolin-4-one]",329 to 331,170
"COc1ccc2ccn3c(=O)cc(-c4ccncn4)nc3c2c1 [compound 7, 10-Methoxy-2-pyrimidin-4-yl-pyrimido[2,1-a]isoquinolin-4-one]",302 to 304,
"COc1cc2c(cc1OC)-c1nc(-c3ccncc3)cc(=O)n1CC2 [compound 9, 9,10-Dimethoxy-2-pyridin-4-yl-6,7-dihydro-pyrimido[2,1-a]isoquinolin-4-one]",271 to 273,
